Results published in publication PMC7592376, “Design and synthesis of multi-target directed 1,2,3-triazole-dimethylaminoacryloyl-chromenone derivatives with potential use in Alzheimer's disease” (BMC Chemistry, 2020).
“And” between values parts separate entries of the source, which are not always exact repeats. Equal entries are not always repeated. Where two headings read alike, the source gives them in different places.

Columns and labels:
[1] = molecular target: T1, AChE (Electrophorus electricus, UniProt O42275); assay: biochemical; conditions: mean ± SD, three independent experiments; read-out: AChEI IC50
T1 construct: purchased Aldrich
Protocol: (§1) All enzymes and reagents required for the assay were obtained from Aldrich. […] Each well contained 50 µL potassium phosphate buffer (KH2PO4/ K2HPO4, 0.1 M, pH 8), 25 µL sample solution, and 25 µL enzyme (final concentration 0.22 U/mL in buffer). Control experiments were also performed under the same conditions without enzyme. After incubation at room temperature for 15 min, 125 µL DTNB (3 mM in buffer) was added and the characterization of enzymatic reaction was spectrometrically performed at 405 nm followed by the addition of substrate (ATCI 3 mM in water) after 5–10 min. The IC50 values were determined graphically from inhibition curves (log inhibitor concentration vs. percent of inhibition). Also, the same method was used for the BuChE inhibition assay.

[2] = molecular target: T2, BuChE (Homo sapiens, UniProt P06276); assay: biochemical; conditions: mean ± SD, three independent experiments; read-out: BuChEI IC50
T2 construct: purchased Aldrich
Protocol: as §1

[3] = molecular target: T2, BuChE; assay: Kinetic study of BuChE inhibition (Lineweaver-Burk and secondary plot); assay type: biochemical
Protocol: The kinetic study was performed to investigate the mechanism of inhibition by compound 10h against BuChE.
The Lineweaver–Burk reciprocal plot was provided by plotting 1/V against 1/[S] at variable concentrations of butyrylthiocholine as the substrate (187.5, 750, 1500, 3000 µM).

[4] = Metal chelation studies by UV spectra and molar ratio method; assay type: physicochemical
Protocol: The stoichiometry of complex 10h-Cu^2+ was also studied (Fig. 4) due to important role of copper ions in AD [38]. The concentration of the test compound 10h was 20 μM and the final concentration of Cu^2+ ranged from 0–44 μM with 4 μM intervals at 303.5 nm.
The plot was obtained by the corresponding absorption against the mole fraction of Cu^2+ to ligand 10h. According to the plot, the ratio 1:1 complexation ration of 10h-Cu^2+ can be seen at the fracture point of the plot with the mole fraction of […].
To study the metal chelating ability, the solutions of compound 10h and Fe^2+, Cu^2+, and Zn^2+ ions (from FeSO4, CuCl2.2H2O, and ZnCl2) were prepared in methanol. The mixture of compound 10h (1 mL) and the test ion solutions (1 mL) with the same final concentration of 20 µM in a 1 cm quartz cuvette was incubated at room temperature for 30 min. Then, the absorption spectra were recorded in the range of 200–600 nm.
The stoichiometry of complex 10h-Cu^2+ was also studied using the molar ratio method. The concentration of compound 10h was 20 μM and the final concentration of Cu^2+ ranged from 0–44 μM with 4 μM intervals at 303.5 nm. The plot was obtained by the corresponding absorption versus mole fraction of Cu^2+ to ligand 10h. All experiments were performed in triplicate.

[5] = test system: PC12 cells; assay: Neuroprotection against Aβ25-35-induced damage, MTT assay; assay type: cell-based; conditions: up to 50 μM, Aβ25-35 5 μM
Protocol: Compound 10h was selected to study the neuroprotective ability using PC12 cell injury induced by Aβ25–35 by MTT assay.
MTT reduction assay was used to evaluate the neuroprotective effect of compound 10h on neuronal PC12 cell damage induced by Aβ25-35. The cells were grown in monolayer culture on collagen-coated plates at 37 °C in a humidified atmosphere of 5% CO2. Neuronal PC12 cells were plated at a density of 5 × 10^5 cells/well on 96-well plates. The cells were pre-incubated with compound 10h for 3 h before human Aβ 25–35 (final concentration of 5 μM) was added. After 24 h, 90 μL the medium was taken out and 20 μL of MTT (0.5 mg/ml dissolved in RPMI containing phenol red) was added and incubated for an additional 2 h at 37 °C. The absorbance (A570 nm) was measured using a Bio-Rad microplate reader (Model 680, Bio-Rad). The details were reported in our previous work.

[6] = molecular target: Aβ1-42 (Homo sapiens, UniProt P05067); assay: biochemical; conditions: read-out: % Inhibition self-induced Aβ1–42 aggregation
Protocol: (§2) Inhibition of Aβ1-42 self-aggregation was measured by ThT fluorescence assay. The details of the method were reported in our previous study. To study Aβ42 aggregation inhibition, a reported method, based on the fluorescence emission of ThT was followed. Briefly, the mixtures of Aβ1-40 peptide (Bachem company, Switzerland) and AChE (Sigma, Electrophorus electricus), in the presence or absence of the test inhibitor were incubated for 24 h at room temperature.

[7] = molecular target: AChE-induced Aβ1-40 peptide aggregation (Homo sapiens, UniProt P05067); assay: biochemical; conditions: read-out: % Inhibition AChE-induced Aβ aggregation
Protocol: as §2

[8] = molecular target: T2, BuChE; set-up: method as in PMID 29421707, PMID 27914694, PMID 31327094, doi:10.1007/s00044-018-2187-8, PMID 25531792; conditions: literature compounds of Fig. 1; read-out: BuChEI, IC50; cited from earlier work
[9] = molecular target: T1, AChE; set-up: method as in PMID 29421707, PMID 27914694, PMID 25531792; conditions: literature compounds of Fig. 1; read-out: AChEI, IC50; cited from earlier work
[10] = test system: Aβ; set-up: method as in PMID 29407958, PMID 29763808, PMID 32131034; conditions: at 25 μM; cited from earlier work
[11] = test system: Aβ; set-up: method as in PMID 29407958, PMID 29763808, PMID 32131034; conditions: at 100 μM; cited from earlier work
[12] = test system: neuronal cell line; set-up: method as in PMID 29107423; conditions: cited from earlier work

T2 sequence (P06276 29-602): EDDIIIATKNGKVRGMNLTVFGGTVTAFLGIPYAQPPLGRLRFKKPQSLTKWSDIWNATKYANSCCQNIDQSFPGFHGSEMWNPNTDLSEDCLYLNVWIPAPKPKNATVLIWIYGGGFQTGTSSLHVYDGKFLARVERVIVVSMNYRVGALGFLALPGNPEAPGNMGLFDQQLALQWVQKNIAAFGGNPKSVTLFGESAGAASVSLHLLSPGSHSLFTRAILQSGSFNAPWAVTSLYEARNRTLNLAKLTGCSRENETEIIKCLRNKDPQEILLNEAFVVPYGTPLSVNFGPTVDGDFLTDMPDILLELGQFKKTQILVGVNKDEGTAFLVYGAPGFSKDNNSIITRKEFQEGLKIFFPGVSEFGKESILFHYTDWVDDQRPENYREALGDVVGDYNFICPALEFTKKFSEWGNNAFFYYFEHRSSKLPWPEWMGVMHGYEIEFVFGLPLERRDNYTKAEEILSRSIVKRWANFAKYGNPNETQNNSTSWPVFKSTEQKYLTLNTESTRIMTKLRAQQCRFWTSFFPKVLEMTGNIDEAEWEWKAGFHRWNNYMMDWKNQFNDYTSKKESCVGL
T1 sequence (O42275 24-633): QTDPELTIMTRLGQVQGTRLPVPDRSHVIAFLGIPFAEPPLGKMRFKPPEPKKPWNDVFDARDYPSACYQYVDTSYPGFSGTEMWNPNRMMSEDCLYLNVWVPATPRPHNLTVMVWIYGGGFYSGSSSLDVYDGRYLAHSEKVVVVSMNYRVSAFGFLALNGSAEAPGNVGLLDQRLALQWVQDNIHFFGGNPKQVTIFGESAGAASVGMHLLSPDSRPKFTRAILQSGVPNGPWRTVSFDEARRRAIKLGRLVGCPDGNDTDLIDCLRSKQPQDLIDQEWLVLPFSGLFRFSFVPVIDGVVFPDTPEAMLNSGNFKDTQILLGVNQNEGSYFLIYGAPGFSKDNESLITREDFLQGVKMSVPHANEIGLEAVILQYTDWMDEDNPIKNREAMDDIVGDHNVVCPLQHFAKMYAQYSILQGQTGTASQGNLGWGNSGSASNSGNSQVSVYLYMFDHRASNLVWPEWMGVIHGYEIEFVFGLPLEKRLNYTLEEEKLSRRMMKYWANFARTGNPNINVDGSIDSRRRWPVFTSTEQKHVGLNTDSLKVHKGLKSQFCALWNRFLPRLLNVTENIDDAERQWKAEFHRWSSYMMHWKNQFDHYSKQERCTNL
Sequence of Aβ1-42 (P05067 672-713 limits assumed): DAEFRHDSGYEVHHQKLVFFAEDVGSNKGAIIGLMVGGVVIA
Sequence of AChE-induced Aβ1-40 peptide aggregation (P05067 672-711): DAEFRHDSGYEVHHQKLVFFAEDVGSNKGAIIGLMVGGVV

Row | Compound | IC50 [1] | IC50 [2] | also measured
1 | CN(C)/C=C/C(=O)c1cc2ccc(OCc3cn(Cc4ccccc4)nn3)cc2oc1=O [Compound 10a, (E)-7-((1-Benzyl-1H-1,2,3-triazol-4-yl)methoxy)-3-(3-(dimethylamino)acryloyl)-2H-chromen-2-one] | > 100 µM | 34.41 ± 0.23 µM | 
2 | Cc1ccccc1Cn1cc(COc2ccc3cc(C(=O)/C=C/N(C)C)c(=O)oc3c2)nn1 [Compound 10b, (E)-3-(3-(Dimethylamino)acryloyl)-7-((1-(2-methylbenzyl)-1H-1,2,3-triazol-4-yl)methoxy)-2H-chromen-2-one] | > 100 µM | 35.73 ± 0.21 µM | 
3 | Cc1ccc(Cn2cc(COc3ccc4cc(C(=O)/C=C/N(C)C)c(=O)oc4c3)nn2)cc1 [Compound 10c, (E)-3-(3-(Dimethylamino)acryloyl)-7-((1-(4-methylbenzyl)-1H-1,2,3-triazol-4-yl)methoxy)-2H-chromen-2-one] | > 100 µM | > 100 µM | 
4 | COc1cccc(Cn2cc(COc3ccc4cc(C(=O)/C=C/N(C)C)c(=O)oc4c3)nn2)c1 [Compound 10d, (E)-3-(3-(Dimethylamino)acryloyl)-7-((1-(3-methoxybenzyl)-1H-1,2,3-triazol-4-yl)methoxy)-2H-chromen-2-one] | > 100 µM | 23.44 ± 0.07 µM | 
5 | CN(C)/C=C/C(=O)c1cc2ccc(OCc3cn(Cc4ccccc4F)nn3)cc2oc1=O [Compound 10e, (E)-3-(3-(Dimethylamino)acryloyl)-7-((1-(2-fluorobenzyl)-1H-1,2,3-triazol-4-yl)methoxy)-2H-chromen-2-one] | > 100 µM | > 100 µM | 
6 | CN(C)/C=C/C(=O)c1cc2ccc(OCc3cn(Cc4cccc(F)c4)nn3)cc2oc1=O [Compound 10f, (E)-3-(3-(Dimethylamino)acryloyl)-7-((1-(3-fluorobenzyl)-1H-1,2,3-triazol-4-yl)methoxy)-2H-chromen-2-one] | > 100 µM | 59.58 ± 0.05 µM | 
7 | CN(C)/C=C/C(=O)c1cc2ccc(OCc3cn(Cc4ccc(F)cc4)nn3)cc2oc1=O [Compound 10g, (E)-3-(3-(Dimethylamino)acryloyl)-7-((1-(4-fluorobenzyl)-1H-1,2,3-triazol-4-yl)methoxy)-2H-chromen-2-one] | > 100 µM | > 100 µM | 
8 | CN(C)/C=C/C(=O)c1cc2ccc(OCc3cn(Cc4ccc(F)c(F)c4)nn3)cc2oc1=O [Compound 10h, (E)-7-((1-(3,4-Difluorobenzyl)-1H-1,2,3-triazol-4-yl)methoxy)-3-(3-(dimethylamino)acryloyl)-2H-chromen-2-one] | > 100 µM | 21.7 ± 0.57 µM | inhibition pattern (Lineweaver-Burk plot) ([3]; BuChE, inhibitor 0, 10.7, 42.9, 85.8 µM): mixed-type inhibition; Ki ([3]; from secondary plot of slopes vs inhibitor concentration, substrate butyrylthiocholine): 38.3 µM; metal chelating ability (in words) ([4]; Fe2+, Cu2+, Zn2+): able to chelate biometals; UV absorption peaks after interaction with Cu2+ ([4]; methanol, 20 µM each, 30 min): 303.5 nm and 382.4 nm; UV absorption peaks after interaction with Fe2+ ([4]; methanol, 20 µM each, 30 min): 303.5 nm and 390.9 nm; UV absorption peaks after interaction with Zn2+ ([4]; methanol, 20 µM each, 30 min): 299.2 nm and 388.7 nm; UV absorption peaks of compound alone ([4]; methanolic solution 20 µM): 309.9 nm and 386.7 nm; neuroprotective effect on Aβ-induced PC12 cell injury [5]: no neuroprotective effect; inhibition at 10 µM [6]: 32.6 ± 2%; inhibition at 100 µM [7]: 29.4 ± 1.5%
9 | CN(C)/C=C/C(=O)c1cc2ccc(OCc3cn(Cc4ccccc4Cl)nn3)cc2oc1=O [Compound 10i, (E)-7-((1-(2-Chlorobenzyl)-1H-1,2,3-triazol-4-yl)methoxy)-3-(3-(dimethylamino)acryloyl)-2H-chromen-2-one] | > 100 µM | > 100 µM | 
10 | CN(C)/C=C/C(=O)c1cc2ccc(OCc3cn(Cc4ccc(Cl)cc4)nn3)cc2oc1=O [Compound 10j, (E)-7-((1-(4-Chlorobenzyl)-1H-1,2,3-triazol-4-yl)methoxy)-3-(3-(dimethylamino)acryloyl)-2H-chromen-2-one] | > 100 µM | > 100 µM | 
11 | CN(C)/C=C/C(=O)c1cc2ccc(OCc3cn(Cc4ccccc4Br)nn3)cc2oc1=O [Compound 10k, (E)-7-((1-(2-Bromobenzyl)-1H-1,2,3-triazol-4-yl)methoxy)-3-(3-(dimethylamino)acryloyl)-2H-chromen-2-one] | > 100 µM | > 100 µM | 
12 | CN(C)/C=C/C(=O)c1cc2ccc(OCc3cn(Cc4cccc(Br)c4)nn3)cc2oc1=O [Compound 10l, (E)-7-((1-(3-Bromobenzyl)-1H-1,2,3-triazol-4-yl)methoxy)-3-(3-(dimethylamino)acryloyl)-2H-chromen-2-one] | > 100 µM | 65.96 ± 0.004 µM | 
13 | CN(C)/C=C/C(=O)c1cc2ccc(OCc3cn(Cc4ccc(Br)cc4)nn3)cc2oc1=O [Compound 10m, (E)-7-((1-(4-Bromobenzyl)-1H-1,2,3-triazol-4-yl)methoxy)-3-(3-(dimethylamino)acryloyl)-2H-chromen-2-one] | > 100 µM | > 100 µM | 
14 | Nc1c2c(nc3ccccc13)CCCC2 [Tacrine, reference compound] |  |  | inhibition at 10 µM [6]: 7.6 ± 1.4%; inhibition at 100 µM [7]: 6.7 ± 0.9%
15 | O=C(NCc1cc[n+](Cc2cccc(F)c2)cc1)c1cc2ccccc2oc1=O [compound A] |  |  | IC50 [8]: 12.2 µM
16 | COc1ccc(Cn2cc(COc3ccc4ccc(=O)oc4c3)nn2)cc1 [compound B] |  |  | IC50 [8]: 1.1 µM; IC50 [9]: 3.4 µM
17 | Clc1ccc(Cn2cc(CSc3nnc(-c4ccccc4)c(-c4ccccc4)n3)nn2)cc1 [compound C] |  |  | IC50 [8]: 6.41 µM
18 | CN(C)CCC(=O)c1ccc(-c2ccc(C(=O)CCN(C)C)cc2)cc1 [compound D] |  |  | IC50 [8]: 0.32 µM; IC50 [9]: 19.9 µM
19 | Cc1cc(=O)oc2cc(OCCCCSC(=S)N3CCCCC3)ccc12 [compound E] |  |  | Aß aggregation inhibition [10]: 40.19%
20 | COc1ccc(-c2cc3ccc(OCCCn4cc(CNC(=O)CCCCC5CCSS5)nn4)cc3oc2=O)cc1OC (centres unmarked) [compound F] |  |  | Aß self aggregation inhibition [11]: 51.2%
21 | N=c1oc2ccccc2cc1C(=O)Nc1cc(Br)ccc1NCc1cn(CCC2C(=O)c3ccccc3C2=O)nn1 [compound G] |  |  | IC50 [12]: 7.9 µM
